# Data as given in patent US20090062190A1, “Transcriptional Regulation of Cytokines by LITAF and STAT (6)(B)” (priority 2005, published 2009).
# System: translocation of STAT6(B) and LITAF in mouse macrophages
# Test: Western blot after kinase inhibitor pretreatment plus LPS stimulation (FIG. 13)
# Type: cell-based
# Conditions: pretreatment before LPS stimulation
# Source text: It is well known that STAT family members share two major domains, oligomerization and Src homology 2 (SH2), for phosphorylation by Janis kinases (Jaks) that facilitate dimerization of STAT proteins and subsequent translocation into the nucleus (Gallmeier, et al., J Cell Physiol, 203:209-216, 2005; Chen, et al., J Allergy Clin Immunol, 114:476-489, 2004, Tang, et al., PNAS USA, 102:5132-5137, 2005). […] In this Western blot, cells were pretreated with various kinase inhibitors (FIG. 13a) before LPS stimulation.
smiles,measurement,setting,value
C[S+]([O-])c1ccc(-c2nc(-c3ccncc3)c(-c3ccc(F)cc3)[nH]2)cc1 (stereo not drawn) [SB203580],TNF-α protein levels compared to cells exposed to LPS only,,suppression
same,LITAF and STAT6(B) expression in the nucleus,Western blot,substantially reduced
same,whole cell extract LITAF and STAT6(B) expression,Western blot,unchanged
